According to PubChem BioAssay (NCI):
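Values below derive from 48-hour exposures of cells grown in 96-well plates, with endpoints linearly interpolated between the two concentrations bracketing the appropriate inhibition level. TGI marks complete inhibition of growth.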

Experiments:
Assay in all cases: growth of human tumour cells (NCI), 48 h
[1] = test system: A498 renal
[2] = test system: CCRF-CEM leukemia
[3] = test system: COLO 205 colon
[4] = test system: HOP-92 NSCLC
[5] = test system: HS 578T breast
[6] = test system: HT29 colon
[7] = test system: MCF7 breast
[8] = test system: MOLT-4 leukemia
[9] = test system: NCI-H460 lung
[10] = test system: NCI/ADR-RES ovarian
[11] = test system: OVCAR-3 ovarian
[12] = test system: OVCAR-5 ovarian
[13] = test system: RPMI-8226 leukemia
[14] = test system: SK-MEL-28 melanoma
[15] = test system: SK-MEL-5 melanoma
[16] = test system: SN12C renal
[17] = test system: SR leukemia
[18] = test system: SW-620 colon
[19] = test system: TK-10 renal
[20] = test system: MDA-MB-231 breast

SMILES | TGI [1] [µM] | TGI [2] [µM] | TGI [3] [µM] | TGI [4] [µM] | TGI [5] [µM] | TGI [6] [µM] | TGI [7] [µM] | TGI [8] [µM] | TGI [9] [µM] | TGI [10] [µM] | TGI [11] [µM] | TGI [12] [µM] | TGI [13] [µM] | TGI [14] [µM] | TGI [15] [µM] | TGI [16] [µM] | TGI [17] [µM] | TGI [18] [µM] | TGI [19] [µM] | TGI [20] [µM]
O=C(CCCn1ccnc1[N+](=O)[O-])NCCn1cnc([N+](=O)[O-])n1 | > 100 | > 100 | > 100 | > 100 | > 100 | > 100 | > 100 | > 100 | > 100 | > 100 | > 100 | > 100 | > 100 | > 100 | > 100 | > 100 | > 100 | > 100 | > 100 | 
CC#CC#C/C=C1\C=CC2(OC=CC2O)O1 (configuration not stated) |  | > 21.1 | 6.83 | > 23.3 |  | > 23.3 |  | > 23.3 | > 23.3 |  | > 20 | 11.8 | > 23.3 | > 23.3 | > 23.3 | > 23.3 | > 23.3 | > 23.3 | > 23.3 | 
CN(C)NC1=NS(=O)(=O)c2cc3c(=O)n(C)[nH]c3cc2S1 | > 10 | > 10 | > 10 | > 10 | > 10 | > 10 | > 10 | > 10 | > 10 | > 10 | > 10 | > 10 | > 10 | > 10 | > 10 | > 10 | > 10 | > 10 | > 10 | 
COC(=O)C1=CCC2c3[nH]c4ccccc4c3CCN2C1 (configuration not stated) |  | > 354 | > 354 | > 354 |  | > 354 |  | > 354 | > 354 |  | > 354 |  | > 354 | > 354 | > 354 | > 354 | > 354 | > 354 | > 354 | 
Cn1c(=O)n(C2(C)CSC2)c2ccccc21 | > 100 | > 100 | > 100 | > 100 |  | > 100 |  | > 100 | > 100 |  |  | > 100 | > 100 | > 100 | > 100 | > 100 | > 100 | > 100 | > 100 | 
CC(N)C(C)c1ccccc1 (configuration not stated) | > 100 | > 100 | > 100 | > 100 |  | > 100 |  | > 100 | > 100 |  | > 100 | > 100 | > 100 | > 100 | > 100 | > 100 | > 100 | > 100 | > 100 | 
C=C(C)[C@H]1CC(=O)[C@@]2(C)C[C@H]3O[C@]3(C)CC/C=C(\C)CC[C@H]12 | 73.9 | > 100 | 44.4 | > 100 |  | > 100 | 57.3 | 60.9 | > 100 | > 100 | 80.1 | > 100 | 91.9 | > 100 | 95.6 | 54.9 |  | > 100 | 71.1 | > 100
CC1CC(=O)Nc2ccccc2N1C(=O)C1CC1 (configuration not stated) | > 100 | > 100 | > 100 | > 100 | > 100 | > 100 | > 100 | > 100 | > 100 |  | > 100 | > 100 | > 100 | > 100 | > 100 | > 100 |  | > 100 | > 100 | > 100
Cc1cccc(-c2nc(-c3cnccn3)n(Cc3ccccc3)n2)c1 |  | > 100 | > 100 | 79.6 |  | > 100 | > 100 | > 100 | > 100 | > 100 | > 100 | > 100 | > 100 | > 100 | > 100 | > 100 | > 100 | > 100 |  | > 100
CSC1=Nc2ccccc2N=C(c2ccccc2)C1 | > 100 | 58.9 | 51.8 | 85.3 |  | > 100 |  | > 100 | 46.8 |  | > 100 | > 100 |  | > 100 | > 100 | > 100 | > 100 | 32.6 | > 100 | 
O=C1CN(c2ccccc2)C(=O)CN1NCNN1CC(=O)N(c2ccccc2)CC1=O | > 100 | > 100 | > 100 | > 100 | > 100 | > 100 | > 100 | > 100 | > 100 |  | > 100 | > 100 | > 100 | > 100 | > 100 | > 100 | > 100 | > 100 | > 100 | 
COc1cccc(/C=N/[N-]C(N)=O)c1[O-].[Co+2].[OH3+].c1ccncc1 |  | > 100 | > 100 | > 100 |  | > 100 |  | > 100 | > 100 |  | > 100 | > 100 | > 100 | > 100 | > 100 | > 100 |  | > 100 |  | 
CCCCCCc1cc2cc(C(=O)Nc3cccc(F)c3)c(=N)oc2cc1O | 15 | 4.97 | 34.7 |  | 6.81 | 78.6 | 11.7 | 7.69 | > 100 | 7.54 | 23.7 | 48.6 | 9.4 | 9.51 | 2.85 |  | 6.29 | > 100 |  | 
COc1cc(OC)c(/C=N\Nc2nc3ccccc3c(=O)n2-c2ccccc2)c(OC)c1 | 41.1 | 51.6 | > 100 | 64.3 |  | 54.3 | > 73.8 | 77.1 | > 77.8 | 46.9 | 50.9 | > 100 | > 100 | 87.2 | > 79.7 | 98.8 | > 100 | > 100 | > 66 | 65.5
